For 8 compounds, TGI results are on record in PubChem BioAssay (NCI).

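Where inhibition never reached the appropriate level, the endpoint shown equals the highest concentration tested. Otherwise, values were interpolated linearly from a five-concentration, 48-hour dose response in 96-well plates. TGI marks complete inhibition of growth.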 A value given as a limit tells only on which side of the number the result lay.

Some test systems named below: A498 renal; A549 NSCLC; DMS 114 small cell lung; DMS 273 small cell lung; HOP-18 NSCLC; M14 melanoma; M19-MEL melanoma; SF-539 CNS; SNB-19 CNS; SNB-78 CNS; TK-10 renal; P388 leukemia; P388/ADR leukemia; SN12K1 renal; HS 578T breast; MDA-MB-231 breast; MDA-MB-435; MDA-N; PC-3 prostate; T-47D breast.
Experiment in all cases: NCI tumour cell line growth inhibition, 48 h

As to `CC(=O)Nc1ccc(C2=N/C(=C\c3ccc(Cl)c(Cl)c3)C(=O)O2)cc1`, the TGI in the assay with A498 renal, in the assay with A549 NSCLC, in the assay with DMS 114 small cell lung, in the assay with DMS 273 small cell lung, with HOP-18 NSCLC and in the assay with M14 melanoma was more than 100 µM each time. In addition, the TGI with M19-MEL melanoma, in the assay with SF-539 CNS, in the assay on SNB-19 CNS, in the assay on SNB-78 CNS and in the assay with TK-10 renal was more than 100 µM throughout.

Consider `CC1C(=O)C(C)C(c2cccs2)N(N=O)C1c1cccs1` (centres undefined), for which the TGI in the assay on A498 renal, in the assay on A549 NSCLC, with DMS 114 small cell lung, in the assay with DMS 273 small cell lung, with M19-MEL melanoma and in the assay with P388 leukemia was more than 100 µM in each case. Besides, the TGI in the assay on P388/ADR leukemia, with SF-539 CNS, in the assay on SN12K1 renal, in the assay with SNB-19 CNS and with SNB-78 CNS was more than 100 µM throughout.

Regarding `Nc1ccc2cc(S(=O)(=O)O)cc(O)c2c1N=Nc1ccc(NC(=O)Nc2ccc(N=Nc3c(N)ccc4cc(S(=O)(=O)O)cc(O)c34)c(S(=O)(=O)O)c2)cc1S(=O)(=O)O`, the TGI with A498 renal, with A549 NSCLC, with DMS 114 small cell lung, in the assay on DMS 273 small cell lung, with HOP-18 NSCLC and in the assay with M19-MEL melanoma was more than 100 µM in each case. Moreover, the TGI in the assay with P388 leukemia, in the assay on P388/ADR leukemia, with SF-539 CNS, in the assay with SN12K1 renal and in the assay on SNB-78 CNS was more than 100 µM in each case.

As for `COc1cc(C2C(Cl)C(=O)N2NC(=O)c2ccc(NC(C)=O)cc2)cc(Br)c1O` (centres undefined), the TGI with A549 NSCLC, with HOP-18 NSCLC, in the assay on M19-MEL melanoma, with SF-539 CNS, with SNB-19 CNS and in the assay with TK-10 renal was more than 100 µM in each case.

On to `COc1ccc(N2C(=O)C3c4[nH]c5ccccc5c4C4CCCCCCCC4C3C2=O)cc1` (centres undefined), for which the TGI in the assay on A498 renal, in the assay with A549 NSCLC, with HS 578T breast, with M14 melanoma, in the assay with MDA-MB-231 breast and with MDA-MB-435 was more than 10 µM in each case. Also, the TGI with MDA-N, with PC-3 prostate, with SF-539 CNS, in the assay with SNB-19 CNS, in the assay on T-47D breast and in the assay with TK-10 renal was more than 10 µM each time.

As to `CN1C[C@H]2[C@@H](C1=O)[C@H](c1ccc([N+](=O)[O-])cc1)ON2C`, the TGI in the assay on A549 NSCLC, in the assay on HS 578T breast, with M14 melanoma, with MDA-MB-231 breast, in the assay with MDA-MB-435 and in the assay with MDA-N was more than 100 µM in each case. Further, the TGI in the assay with PC-3 prostate, in the assay on SNB-19 CNS, in the assay with T-47D breast and with TK-10 renal was more than 100 µM in each case.

As to `O=C1ON(Cc2ccccc2)C(c2ccccc2)N1c1ccccc1` (centres undefined), the TGI with A498 renal, with A549 NSCLC, in the assay on DMS 114 small cell lung, with DMS 273 small cell lung, in the assay on HOP-18 NSCLC and with M19-MEL melanoma was more than 100 µM each time. The TGI with P388 leukemia, in the assay with P388/ADR leukemia, in the assay on SF-539 CNS, in the assay with SN12K1 renal, in the assay with SNB-19 CNS and in the assay on SNB-78 CNS was more than 100 µM each time.

For `COc1ccc2c(C)cc(N/N=C/c3sccc3C)nc2c1`, the TGI with A549 NSCLC was 29.4 µM; with HS 578T breast it was 36.7 µM; in the assay on M14 melanoma, 24.1 µM; in the assay with MDA-MB-231 breast, 5.9 µM; in the assay with MDA-MB-435, 35.4 µM; in the assay with MDA-N it was 27.3 µM. Also, the TGI in the assay with PC-3 prostate is 31.9 µM; with SF-539 CNS, 27.5 µM; in the assay with SNB-19 CNS, 41.6 µM; in the assay with T-47D breast, 33.6 µM; in the assay on TK-10 renal, 43.3 µM.
